# Data: patent publication US10351915B2 (Berg LLC, priority 2009, dated 2019)
# Tests used:
# [1] = system: Lactate Dehydrogenase (LDH); test: Western blot, Lactate Dehydrogenase levels; type: cell-based, human
# Procedure: In this experiment, the cells were additionally treated with either 5 mM glucose (“5G”) or 22 mM glucose (“22G”). The samples derived from the cells were processed and run on a 4-12% Bis-Tris Novex NuPAGE gel as described above. The gels were run, transferred and stained essentially as described above.
# After transfer each blot was dried for 15-20 minutes, activated with methanol for 5 seconds, washed with water for 5 minutes, and TBST for 15 minutes. The blots were blocked for 1 hour with 5% blocking reagent in TBS-T at room temperature and then washed 3 times with TBS-T (1×-15′; 2×5′ each) and probed with the primary antibody for Lactate Dehydrogenase (abcam ab2101; polyclonal) in 5% BSA (at 1:1000 dilutions) by incubation overnight at 4 deg C. with shaking. After the overnight incubation with primary antibody for Lactate Dehydrogenase, the blots were washed 3 times with TBS-T (1×-15′; 2×5′ each) and probed with the secondary antibody (rabbit antigoat; 1:10,000 dilution) for 1 h at room temperature. After 1 h of incubation with secondary antibodies, the blots were washed 3 times with TBS-T (1×-15′; 2×5′ each) and then incubated with ECF reagent for 5 mins and then each blot scanned with 5100 Fuji Laser scanner at 25 uM resolution, 16 bit, green laser, at 400V and at 500 V.
# In this experiment, the cells were additionally treated with either 5 mM glucose (“5G”) or 22 mM glucose (“22G”). The samples derived from the cells were processed and the gels were run, transferred, stained and scanned essentially as described above.
# The levels of LDH and PDH were determined by probing the blots successively with primary antibodies for LDH and PDH, essentially as described above.
# The above blots were stripped by incubating for 30 minutes with methanol, followed by two 10 minute washes with TBS-T, then 30 minutes of incubation with Stripping buffer at 50 deg C., and followed by two washes with 100 ml or more of TBS-T for 30′ each. The blots were scanned in laser scanner to check for complete stripping. […]
# HDFa cells = test: Extracellular acidification rate (ECAR), SeaHorse XF analyzer; type: cell-based, human
# Excerpt: (SeaHorse Biosciences Inc, North Billerica, Mass.).
# In this experiment, the OCR and extracellular acidification rate (ECAR) in normal cells lines were obtained in the presence and absence of CoQ10 to determine baseline values. It was observed that in its native nutrient environment, the basal OCR rates in normal cells lines are different, and are usually a function of the physiological roles of the cells in the body.
# Table 127 below describes the ECAR values (mpH/min) in HDFa cells in the presence or absence of CoQ10 under normoxic and hypoxic conditions at 5.5 mM and 22 mM glucose.
smiles,measurement,setting,value
"COC1=C(OC)C(=O)C(C/C=C(\C)CC/C=C(\C)CC/C=C(\C)CC/C=C(\C)CC/C=C(\C)CC/C=C(\C)CC/C=C(\C)CC/C=C(\C)CC/C=C(\C)CCC=C(C)C)=C(C)C1=O [Q10, Coenzyme Q10]",Lactate Dehydrogenase Normalized Volume (24 h),"[1]; HepG2, 5g glucose, 24 h, amount 50",7900
same,LDH expression,[1]; cancer,reduced
same,LDH expression,[1]; normal cells,minimal effect
same,ECAR,HDFa cells; high glucose hypoxic conditions,lowering of elevated ECAR
same,ECAR values,"HDFa cells; normoxic and hypoxic, 5.5 mM and 22 mM glucose",minimal influence on ECAR values
